Data taken from patent US9895363B2, “Methods for modulating function of proliferating cell nuclear antigen (PCNA) and treating cancer with PCNA-targeting compounds” (University of Cincinnati, priority 2010, dated 2018).

Experiments:
[1] = tested on: TRAMP-C2RE3 prostate cancer cells; assay: Growth inhibition by MTT staining, TRAMP-C2RE3; format: cell-based; settings: 96 h, Mouse, Prostate tumor cells, treated four days
Description: (§1) Growth inhibitory effects of PCNA-I1 and PCNA-I2 were assessed in human cancer cell lines, mouse cancer cell lines, immortalized mouse cell lines, and human primary cell lines. Specifically, growth inhibitory effects of PCNA-I1 and PCNA-I2 were assessed using MTT staining in the following cells lines: 1) human cancer cell lines including LNCaP (androgen receptor […]), 22Rv1, DU-145, LAPC-4, and PC-3 (androgen receptor […]) prostate cancer cells; MCF-7 and T47D breast cancer cells; A375 and MDA-MB435 melanoma cells; 2) mouse cancer cell lines including TRAMP-C2RE3 prostate cancer cells, B16 and K1735 melanoma cells, UV2237 fibrosarcoma cells, and CT-26 colon cancer cells; 3) immortalized mouse lung cell lines and mouse endothelial cell lines; and 4) primary human cell lines including umbilical endothelial cells (HUVEC, PromoCell, Heidelberg, Germany), primary bone marrow mesenchymal stem cells (HuMSC, PromoCell), primary human mammary epithelial cells (HuBrEC, Lonza, Walkersville, Md.), primary human prostate epithelial cells (HuPrEC, Lonza), and primary mouse spleen lymphocytes (isolated in this laboratory), and primary mouse bone marrow stromal cells (isolated in this laboratory). […]
(§2) IC50 values were derived from growth inhibition curves. […] Inhibition of cell growth was calculated using the formula: growth inhibition (%)=(1−A570 of treated/A570 of control)×100. […]

K1735 melanoma cells = assay: Growth inhibition by MTT staining, K1735; format: cell-based; settings: 96 h, Mouse, treated four days
Description: as §1, §2

PC-3 cells = assay: Cell cycle distribution by flow cytometry, PC-3; format: cell-based, Human
Description: The effects of PCNA inhibitors on cell cycle progression were investigated via flow cytometry analysis. Specifically, PC-3 cells were plated into 60 mm plates at 2×10^5 cells/plate and were allowed to attach overnight.
The cells were rinsed with HBSS, detached by trypsinization, suspended in MEM-5% FBS, pelleted by centrifugation, resuspended in PI staining solution (PBS containing 50 μg/mL PI, 100 μg/mL RNase A, and 0.05% Triton X-100), and incubated for 45 min at 37° C. After washing with PBS, the cells were resuspended in PBS for flow cytometry analysis in an Epics-XL-MCL system (Beckman Coulter, Fullerton, Calif.). Thirty thousand cells at each time point were collected to determine their DNA content and to obtain flow cytometric fluorescence histograms (X-axis fluorescence, Y-axis cell number). The three fractions (G0/G1, G2/M and S) were quantified by using the Synchronization Wizard of ModFit LT Flow Cytometry Cell-cycle Analysis Softward (Verity Software House, Topsham, Me.).
Flow cytometry analysis was also performed on cells in which endogenous PCNA was knocked down with transfection of PCNA-specific siRNA. Specifically, PC-3 cells were plated into a 60-mm plate at 2×10^5/plate in antibiotics-free medium and transfected with 200 pmol PCNA specific siRNA or control scrambled siRNA for 24 H using Lifectamine 2000. The cells were then cultured in SFM for 24 H, followed by incubation in fresh SFM or stimulation with medium supplemented with 5% FBS, and sampled at different times for analyses. The PC-3 cells were also subjected to western blot analysis. Specifically, cells were washed and scraped into a lysis buffer (1% Triton X-100, 20 mM Tris-HCl, pH 8.0, 137 mM NaCl, 10% glycerol, 2 mM EDTA, 1 mM PMSF, and a protease inhibitor cocktail) and analyzed by Western blotting analysis as described by Zhang et al. in Tumor-infiltrating Macrophages are Involved in Suppressing Growth and Metastasis of Human Prostate Cancer Cells by INF-beta Gene Therapy in Nude Mice; Clin. Cancer Res. 2002; 8:29:2942-51. Samples were collected at 0 H (48 H after transfection), 24 H, 48 H, and 72 H, respectively.
Fluorescence-activated cell sorting (FACS) analysis was performed on both PC-3 cells and LNCaP cells using PCNA-I1. Specifically, cells were treated with 1 or 10 μM PCNA-I1 and sampled for the flow cytometry analysis at 24 H, 48 H, and 72 H. Expression of DNA damage and apoptosis-related proteins in PC-3 cells and LNCaP cells was also determined. Cisplatin, a well-known drug that induces DNA damage and apoptosis, was included in the experiment. LNCaP cells were treated for 6 H, 12 H, or 18 H with 10 μM PCNA-I1, 10 μM cisplatin, or both.

[2] = 1 μM, 5% FBS after serum starvation, FIGS. 4 and 5

## Cc1ccsc1C(=O)N/N=C/c1ccc2ccccc2c1O [PCNA-I1]
[1]
  IC50: 200 nM
K1735 melanoma cells
  IC50: 50 nM
PC-3 cells; 1 μM, 5% FBS after serum starvation, 24-72 H, FIGS. 4 and 5
  Cells in G1 phase: partially attenuated the serum-stimulated G1 decrease at 24 H but led to significant G1 reductions at 48 H and 72 H
PC-3 cells; [2]
  Cells in S phase: significantly increased at 24 H
  G2/M fraction of cells: increased steadily at 48 H and 72 H
PC-3 cells; 1 μM, FIG. 15
  Cell cycle effect, PC-3, 1 μM: cell growth arrest at S and G2/M phases
PC-3 cells; 10 μM, FIG. 15
  Cell cycle effect, PC-3, 10 μM: more significant G1 arrest
PC-3 cells; 1 or 10 μM, 24, 48, 72 H
  Apoptosis, PC-3: Apoptosis was not observed
